# Where a name gives a salt, the structure may show the parent alone.
# Assays:
# [1] = format: in vivo, human (female patients); settings: for relief by previous treatment: six DMSO treatments and one heparin treatment
# Description: They were administered a 75 mg oral dose of hydroxyzine pamoate per day. After 5 days the burning sensation upon voiding and sharp pelvic pain disappeared. In two months, the extreme tenderness from their chest area to pelvic area also disappeared. After about 10 to 12 weeks frequency was eliminated. […] Upon discontinuing administration of hydroxyzine pamoate symptoms reappeared within 24 hours or less. After one year of treatment, the subject takes 50 mg and 25 mg of hydroxyzine pamoate, respectively, on alternating days, with continued 100% success.
# This person three was diagnosed with interstitial cystitis in March 1989. […] Their symptoms included constant burning in the bladder, pain at the connection of the buttocks with the upper legs and painful sexual intercourse. They could not sleep although their need to urinate was only about four times per night. Sitting on "blue ice" packs wrapped in a cloth provided some relief from the buttock pain and the burning.
# This is person one who experienced increasing problems over the last 10 years until it became difficult to function as a nurse, parent and spouse. […] They had not received any treatment since February 1990 and was experienceing a flare up of symptoms when they tried hydroxyzine-HCl. […]
# Rat Bladder Mast Cells = assay: ID20 for histamine release, inhibition of mast cell secretion by H-1 receptor antagonists in vitro (Table 5); format: cell-based; settings: inhibitory dose causing 20% inhibition, read-out: ID20 for Histamine Release from Rat Bladder Mast Cells
# Source text: "Inhibitor of neurohormonal activation of mast cell secretion" refers to any substance or group of substances, devoid of any psychotropic effects which prevent the stimulation of mast cell secretion by hormones or molecules produced by nervous tissue.
# (§1) More appropriate to interstitial cystitis, bladder mast cells can be triggered to secrete in situ using slices of rodent bladders in perfusion chambers and measuring secreted chemicals (Theoharides, T. C. and Sant, G. R. Bladder mast cell activation in interstitial cystitis. Seminars Urology 9:74-87, 1991).
# bladder mast cells = assay: Inhibition of neurohormonal activation of bladder mast cell secretion; format: cell-based; settings: for inhibition of neurohormonal activation of bladder mast cell secretion (in words): found by the applicant
# Source text: "Inhibitor of neurohormonal activation of mast cell secretion" refers to any substance or group of substances, devoid of any psychotropic effects which prevent the stimulation of mast cell secretion by hormones or molecules produced by nervous tissue. Whether or not a pharmacologically active substance is an inhibitor of neurohormonal activation of mast cell secretion can be determined by using the following procedure: Mast cells purified from peritoneal cavities of rats and stimulated by a neuropeptide, such as somatostatin (Theoharides, T. C. and Douglas, W. W. Endocrinology 102:1637-1640, 1978), or rat brain slices stimulated by substance P in special perfusion chambers (Dimitriadou, V., Buzzi, M. G., Moskowitz, M. A. and Theoharides, T. C. Neuroscience 44:27-39, 1991) or rat bladder mast cells stimulated by carbachol in special perfusion chambers (Theoharides, T. C. and Sant, G. R. Seminars Urology […], 1991) will first be […] with concentration of the agents to be tested ranging from 0.1 μmol/L-to-100 μmol/L of solution for varying amounts of time at 37° C. to determine their ability to inhibit subsequent mast cell secretion as described above.
# These compounds can be tested by preincubating mast cells purified from the peritoneal cavity of rats with various concentrations of compound, typically 0.1 μmol/L to 1,000 μmol/L, for various times at 37° C. before stimulating mast ctll secretion with a stimulus such as somatostatin (Theoharides, T. C. and Douglas, W. W. Somatostatin induces histamine secretion from rat peritoneal mast cells. Endocrinology 102:1637-1640, 1978).
# as §1
# [2] = cited from earlier work
# [3] = cited from earlier work; remark: listed apart in the source
# neurons = assay: Inhibition of neuropeptide release from neurons stimulated by high K^+; format: cell-based
# [4] = Anticholinergic and anxiolytic properties; settings: decreasing frequency
# [5] = Example 2, patient three, since March 1991
# [6] = Example 2, patient three, 25 mg
# [7] = Example 1, patient two, 75 mg oral per day
compound,measurement,setting,value
OCCOCCN1CCN(C(c2ccccc2)c2ccc(Cl)cc2)CC1 (racemic) [hydroxyzine-HCl],pain on sexual intercourse,"[1]; Example 2, patient three",no longer associated with severe bladder pain
same,quality of life,"[1]; Example 2, patient three",definitely improved the quality of their life
same,tolerance of offending foods,"[1]; Example 2, patient three",they can eat some offending foods in small quantities
same,burning in the bladder,[1]; [5],the burning has subsided significantly
same,buttock pain,[1]; [5],the buttock pain is reduced
same,symptoms on attempted withdrawal of the drug,"[1]; Example 3, patient one, 2 or 3 occasions",definite increase in interstitial cystitissymptoms
same,bladder comfort,"[1]; Example 3, patient one, 25 to 50 mg daily",almost total bladder comfort
same,control of symptoms,"[1]; Example 3, patient one, daily since May 1990",remarkable control of symptoms
CN1CCC(=C2c3ccccc3CCc3cccnc32)CC1 [Azatadine],IC20,Rat Bladder Mast Cells,1 µM
same,inhibition of neurohormonal activation of bladder mast cell secretion (in words),bladder mast cells,inhibit neurohormonal activation of bladder mast cell secretion
CN1CCCC(n2nc(Cc3ccc(Cl)cc3)c3ccccc3c2=O)CC1 (stereo not drawn) [Azelastine],IC20,Rat Bladder Mast Cells,1 µM
same,inhibition of neurohormonal activation of bladder mast cell secretion (in words),bladder mast cells,inhibit neurohormonal activation of bladder mast cell secretion
"C[S+](C)[O-] [DMSO, dimethylsulfoxide]",relief by previous treatment,"[1]; Example 2, patient three",very limited relief
same,improvement by previous treatment,"[1]; Example 3, patient one",fairly good improvement
same,pulmonary excretion,[2]; intravesical,pulmonary excretion of a small percentage of the DMSO as dimethyl sulfide
same,side effects: bladder and urethra,[3]; intravesical,"Bladder spasms and irritability may be experienced with DMSO treatment, as well as urethral burning during voiding"
same,side effects: breath odor and taste,"[3]; intravesical, most patients",garlic-like breath odor and a similar taste in their mouths
OCCOCCN1CCN(C(c2ccccc2)c2ccc(Cl)cc2)CC1 (stereo not drawn) [Hydroxyzine],IC20,Rat Bladder Mast Cells,50 µM
same,inhibition of secretion from stimulated bladder mast cells (in words),"bladder mast cells; Table 3, unique characteristics",inhibits secretion from stimulated bladder mast cells
same,inhibition of neurohormonal activation of bladder mast cell secretion (in words),bladder mast cells,inhibit neurohormonal activation of bladder mast cell secretion
same,inhibition of neuropeptide release from neurons (in words),neurons,inhibits neuropeptide release from neurons
same,anticholinergic properties (in words),[4],strong anticholinergic properties decreasing frequency
same,"relief from frequency, dysuria, pain","[1]; 9 females, 25 mg twice - three times/day × 8 months, alternate 25 mg every other day past 8 months",80-100%
same,Problems (side effects),"[1]; human, in vivo","Mild sedation, weakness × 1 week"
CN1CCC(=C2c3ccccc3CC(=O)c3sccc32)CC1 [Ketotifen],inhibition of neurohormonal activation of bladder mast cell secretion (in words),bladder mast cells,inhibit neurohormonal activation of bladder mast cell secretion
CN(C)CCC=C1c2ccccc2CCc2ccccc21 [amitriptyline],success of previous treatment,"[1]; Example 1, patient two, conventional methods and amitriptyline",limited success
same,effect of previous treatment on sleep,[1]; [6],enabled them to sleep some
same,foods bringing symptoms on previous treatment,[1]; [6],many foods still brought severe symptoms
same,side effects,"[3]; human, in vivo","troublesome side effects such as hypotension, tachycardia, anxiety, or palpitations"
O=C(O)COCCN1CCN(C(c2ccccc2)c2ccc(Cl)cc2)CC1 (stereo not drawn) [cetirizine],inhibition of neurohormonal activation of bladder mast cell secretion (in words),bladder mast cells,inhibit neurohormonal activation of bladder mast cell secretion
OCCOCCN1CCN(C(c2ccccc2)c2ccc(Cl)cc2)CC1 (stereo not drawn) [hydroxyzine pamoate],patient-reported state,"[1]; Example 1, patient two",felt 100% normal
same,time to reappearance of symptoms upon discontinuing administration,"[1]; Example 1, patient two",≤ 24 h
same,time to disappearance of burning sensation upon voiding and sharp pelvic pain,[1]; [7],5 days
same,time to disappearance of extreme tenderness from chest area to pelvic area,[1]; [7],two
same,continued success after one year of treatment,"[1]; Example 1, patient two, 50 mg and 25 mg on alternating days",100%
CN(C)CCN(Cc1ccccc1)c1ccccn1 [pyribenzamine],duration of the response,"[3]; oral, 50 mg three times daily",variable
same,symptomatic improvement,"[3]; oral, 50 mg three times daily",some symptomatic improvement
heparin,relief by previous treatment,"[1]; Example 2, patient three",very limited relief
sodium pentosan polysulfate,duration,[2]; must be taken numerous times per day,short duration
same,amount of drug reaching the site of treatment,[2]; oral,only a small amount of the drug will reach the site of treatment
same,metabolism,[2]; oral,primarily liver-metabolized
same,replacement of the protective surface mucin,[3]; oral or intravesical administration,replace the protective surface mucin
